Square brackets hold non-standard residues; d marks the D form. Peptide text beside a SMILES is read from it.
Key:
phosphodiesterase = experiment: calcium-dependent phosphodiesterase assay in the absence of calmodulin; assay type: biochemical; conditions: Table III
Method: To sample assay tubes were added the following components: assay buffer, 25 ul; CaCl2, 5 ul; 5'-nucleotidase, 7.5 ul (stock solution is 10 units/ml); calmodulin 5 units; calmodulin inhibitor peptides to obtain the desired final concentration of 50 μM. The volume was then made up to 200 ul with water. Control blanks were prepared replacing the peptides with water. The added components were thoroughly mixed and the tubes incubated at 30° C. for 10 min. Then, 25 ul of cAMP at 10.8 mM was added and incubated for 90 min at 30° C. The reaction was stopped by the addition of 50 ul of 55% trichloroacetic acid (TCA). The samples were centrifuged to remove the protein precipitate and the 50 ul of the supernatant was withdrawn for phosphate measurement. To the supernatant aliquot, 50 ul ammonium molybdate (0.55% in 1.1 N sulfuric acid) was added, followed by the addition of 5 ul of reducing agent (24 g sodium bisulfite, 2.4 g sodium sulfite, 0.5 g of 1-amino-2-naphthol-4-sulfonic acid in 200 ml of water), and the contents were mixed by vortexing. The absorbance of the solution were read at 660 nm using water as a blank, identified as control "Calmo."
As described above, one of the undesirable biological effects of existing calmodulin inhibitors is their non-specific binding to other proteins and the like. Therefore, the specificity of the instant inhibitory peptides for calmodulin was examined. The specificity was determined using the calcium-dependent phosphodiesterase assay described in Example I. The assay was carried out for the determination of IC50 values in the presence of calmodulin (IC50 value for calmodulin) and in the absence of calmodulin (IC50 for phosphodiesterase), the latter of which provides the effect of the inhibitory peptides on the phosphodiesterase.

calmodulin = calmodulin (Homo sapiens, UniProt P0DP23); experiment: electrophoretic band shift assay of peptide-calmodulin complexes; assay type: binding
Method: The following samples were subjected to electrophoresis in the gel lane indicated:
Because melittin is known to bind to calmodulin as described, for example, in Comte et al., Biochem. J., 209:269-272 (1983), in the above samples melittin is the positive control. The samples were incubated with calmodulin at 22° C. for 1 hr, and electrophoresed on a 10% acrylamide gel in Tris-glycine buffer under nondenaturating conditions as described in Head and Perry, Biochem. J., 137:145-154 (1974), which is incorporated herein by reference. The gel was then stained with coomasie blue.
The band shifts were also measured using a densitometer. Determination of band width by densitometry was done on the following samples: (1) calmodulin (1 nmol)+EDTA (2 nmol); (2) calmodulin (1 nmol)+Ca^2+ (1 nmol)+Ac-(D)Leu-(D)Trp-(D)Arg-(D)Ile-(D)Leu-(D)Trp-NH2 (100 nmol); and (3) calmodulin (1 nmol)+Ca^2+ (1 nmol).

NRK cells = experiment: long term stability: number of NRK cells at 48 hr after activation; assay type: cell-based, rat; conditions: added at 5 hr, counted 48 hr after activation
Description: The similar activity found for the (L)-amino acid peptides and (D)-amino acid peptides indicate that the inhibition of calmodulin occurs rapidly following the addition of the inhibitory peptides. The peptides' long term stability was then studied by adding Ac-(D)Leu-(D)Trp-(D)Arg-(D)Ile-(D)Leu-(D)Trp-NH2, Ac-Leu-Trp-Arg-Ile-Leu-Trp-NH2 (SEQ ID No. 48), W13 and W12 at 5 hr following the reentry of the NRK cells into the cell cycle and measuring the number of cells at 48 hr after activation.

rat liver cells = experiment: in vivo rat model: DNA synthesis of rat liver cells after partial hepatectomy; conditions: intravenous injection 5 hours after partial hepatectomy, measured 24 hours post hepatectomy
Description: The effect that calmodulin inhibitors have on DNA synthesis were also studied in vivo in a rat model. Rat liver cells are a useful in vivo system for studying synchronized cells and the cell cycle. By partial hepatectomy, the hepatocyte quiescent cells present in normal adult rat liver can be stimulated to enter the replicative cell cycle and the effect of inhibitors on the cycle analyzed. This example provides the effect of the subject calmodulin inhibitory peptides on the DNA synthesis of rat liver cells in partial hepatectomy stage following intra venal injection of the peptides.
Male Sprague-Dawley rats ([…]; 2 rats per peptide or control) were fasted overnight. Partial hepatectomies were carried out under Ketolar anesthesia (Parke-Davis; Ann Arbor, Mich.), following the procedure described by Higgins and Anderson in Arch. Pathol., 12:186-202 (1931), which is incorporated herein by reference. […] DNA synthesis was assessed by measuring the radioactivity incorporated into DNA following an intraperitoneal injection (0.5 mCi/g body weight) of [^3 H] thymidine 1 hr prior to killing the rat and at 23 hours post hepatectomy. […] The liver tissue was homogenized in 10% trifluoroacetic acid at 4° C. and the DNA extracted and its radioactivity measured following the procedure described by Burton, Biochem. J., 62:315-320 (1956), which is incorporated herein by reference. […]

CC[C@@H](C)[C@@H](NC(=O)[C@@H](CCCNC(=N)N)NC(=O)[C@@H](Cc1c[nH]c2ccccc12)NC(=O)[C@@H](CC(C)C)NC(C)=O)C(=O)N[C@H](CC(C)C)C(=O)N[C@H](Cc1c[nH]c2ccccc12)C(N)=O [Ac-(D)Leu-(D)Trp-(D)Arg-(D)Ile-(D)Leu-(D)Trp-NH2] (Ac-[dL][dW][dR][dI][dL][dW]-NH2)
IC50 (phosphodiesterase): 118 µM
band shift (mobility change) on binding to calmodulin (calmodulin; in the presence of Ca2+): shifted relative to lane 8
band shift (mobility change) on binding to calmodulin (calmodulin; with EDTA (no calcium)): no band shift
number of cells relative to control cells (NRK cells): significantly lower number of cells
% DNA SYNTHESIS (rat liver cells): 50%

— US5840697A, “Peptide inhibitors of calmodulin” (Torrey Pines Institute for Molecular Studies, priority 1996, dated 1998)
